According to ChEMBL document CHEMBL4251632, “Synthesis and antidepressant-like activity of novel aralkyl piperazine derivatives targeting SSRI/5-HT1A/5-HT7” (Eur J Med Chem, 2018):

Columns and labels:
[1] = Apparent terminal half life in Sprague-Dawley rat at 2 mg/kg, po administered as single dose by LC-MS/MS analysis; type: ADME, organism-based; conditions: in vivo, read-out: betat1/2(app) (converted)
[2] = target: 5-hydroxytryptamine receptor 7 (Homo sapiens, UniProt P34969); assay: Displacement of [3H]LSD from recombinant human 5-HT7 receptor expressed in CHO cell membranes after 120 mins by TopCount scintillation counting method
[3] = Clearance in rat liver microsomes at 1 uM in presence of NADPH by LC-MS/MS analysis; type: ADME, microsome; conditions: read-out: CLH
[4] = system: Mus musculus; assay: Antidepressant-like activity in mouse assessed as reduction in immobility time at 10 mg/kg/day, po once daily for 7 days measured for last 4 mins of 6 mins test at 1 hr post last dose by forced swim test relative to control; type: functional; design: scale not given: the % may be the effect or the level left
[5] = Plasma concentration in Sprague-Dawley rat at 0.5 mg/kg, iv administered as single dose measured after 4 hrs by LC-MS/MS analysis; type: ADME, organism-based
[6] = MRT (0 to t) in Sprague-Dawley rat at 2 mg/kg, po administered as single dose by LC-MS/MS analysis; type: ADME, organism-based; conditions: in vivo
[7] = system: Mus musculus; assay: Antidepressant-like activity in mouse assessed as reduction in immobility time at 40 mg/kg/day, po administered once daily for 7 days measured for 5 mins at 1 hr post last dose by tail suspension test relative to control; type: functional; design: scale not given: the % may be the effect or the level left
[8] = Plasma concentration in Sprague-Dawley rat at 0.5 mg/kg, iv administered as single dose measured after 2 hrs by LC-MS/MS analysis; type: ADME, organism-based
[9] = Plasma concentration in Sprague-Dawley rat at 2 mg/kg, po administered as single dose measured after 2 hrs by LC-MS/MS analysis; type: ADME, organism-based
[10] = Cmax in Sprague-Dawley rat at 2 mg/kg, po administered as single dose by LC-MS/MS analysis; type: ADME, organism-based; design: dose 2 mg/kg, route oral; conditions: in vivo
[11] = Plasma concentration in Sprague-Dawley rat at 0.5 mg/kg, iv administered as single dose measured after 5 mins by LC-MS/MS analysis; type: ADME, organism-based
[12] = Cmax in Sprague-Dawley rat at 0.5 mg/kg, iv administered as single dose by LC-MS/MS analysis; type: ADME, organism-based; design: dose 0.5 mg/kg, route intravenous; conditions: in vivo
[13] = AUC (0 to t) in Sprague-Dawley rat at 0.5 mg/kg, iv administered as single dose by LC-MS/MS analysis; type: ADME, organism-based; conditions: in vivo
[14] = system: Mus musculus; assay: Antidepressant-like activity in mouse assessed as reduction in immobility time at 40 mg/kg/day, po once daily for 7 days measured for last 4 mins of 6 mins test at 1 hr post last dose by forced swim test relative to control; type: functional; design: scale not given: the % may be the effect or the level left
[15] = system: Mus musculus; assay: Antidepressant-like activity in mouse assessed as reduction in immobility time at 20 mg/kg/day, po once daily for 7 days measured for last 4 mins of 6 mins test at 1 hr post last dose by forced swim test relative to control; type: functional; design: scale not given: the % may be the effect or the level left
[16] = target: T1, 5-hydroxytryptamine receptor 1A (Homo sapiens, UniProt P08908); assay: Displacement of [3H]8-OH-DPAT from recombinant human 5-HT1A receptor expressed in HEK293 cell membranes after 60 mins by TopCount scintillation counting method
T1 sequence (P08908 whole entry): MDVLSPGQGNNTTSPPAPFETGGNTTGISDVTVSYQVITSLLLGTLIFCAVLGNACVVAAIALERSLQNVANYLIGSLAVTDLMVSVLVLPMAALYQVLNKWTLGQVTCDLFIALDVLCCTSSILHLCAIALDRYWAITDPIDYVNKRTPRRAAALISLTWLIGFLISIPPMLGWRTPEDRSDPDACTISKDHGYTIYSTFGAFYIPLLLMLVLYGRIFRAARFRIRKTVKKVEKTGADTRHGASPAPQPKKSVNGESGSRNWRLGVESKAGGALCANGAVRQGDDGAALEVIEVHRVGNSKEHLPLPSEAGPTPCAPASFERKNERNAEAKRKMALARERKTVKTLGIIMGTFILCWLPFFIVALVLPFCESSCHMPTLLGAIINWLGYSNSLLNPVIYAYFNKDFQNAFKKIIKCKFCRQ

[17] = target: T2, Alpha-1A adrenergic receptor (Homo sapiens, UniProt P35348); assay: Displacement of [3H]prazosin from alpha1-adrenoceptor (unknown origin) in cerebral cortex membranes after 60 mins by TopCount scintillation counting method; type: cell membranes, Membrane
T2 sequence (P35348 whole entry): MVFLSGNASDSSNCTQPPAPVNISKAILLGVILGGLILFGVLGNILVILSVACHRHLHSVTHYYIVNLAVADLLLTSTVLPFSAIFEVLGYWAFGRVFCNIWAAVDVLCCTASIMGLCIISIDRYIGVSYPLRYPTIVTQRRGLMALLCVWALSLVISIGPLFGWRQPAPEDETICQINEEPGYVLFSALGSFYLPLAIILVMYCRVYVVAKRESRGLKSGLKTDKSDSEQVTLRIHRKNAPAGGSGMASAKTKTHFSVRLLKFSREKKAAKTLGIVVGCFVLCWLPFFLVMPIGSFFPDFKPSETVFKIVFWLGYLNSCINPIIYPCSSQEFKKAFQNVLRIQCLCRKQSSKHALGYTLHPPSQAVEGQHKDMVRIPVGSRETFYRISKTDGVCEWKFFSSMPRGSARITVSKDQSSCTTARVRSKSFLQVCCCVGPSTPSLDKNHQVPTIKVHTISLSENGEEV

[18] = Plasma concentration in Sprague-Dawley rat at 0.5 mg/kg, iv administered as single dose measured after 30 mins by LC-MS/MS analysis; type: ADME, organism-based
[19] = Plasma concentration in Sprague-Dawley rat at 2 mg/kg, po administered as single dose measured after 1 hr by LC-MS/MS analysis; type: ADME, organism-based
[20] = target: Sodium-dependent serotonin transporter (Rattus norvegicus, UniProt P31652); assay: Inhibition of [3H]serotonin reuptake in rat brain synaptosomes SERT after 15 mins by TopCount scintillation counting method; type: subcellular
[21] = Plasma concentration in Sprague-Dawley rat at 2 mg/kg, po administered as single dose measured after 6 hrs by LC-MS/MS analysis; type: ADME, organism-based
[22] = Plasma concentration in Sprague-Dawley rat at 2 mg/kg, po administered as single dose measured after 4 hrs by LC-MS/MS analysis; type: ADME, organism-based
[23] = Apparent terminal half life in Sprague-Dawley rat at 0.5 mg/kg, iv administered as single dose by LC-MS/MS analysis; type: ADME, organism-based; conditions: in vivo, read-out: betat1/2(app) (converted)
[24] = Plasma concentration in Sprague-Dawley rat at 2 mg/kg, po administered as single dose measured after 30 mins by LC-MS/MS analysis; type: ADME, organism-based
[25] = organism: Homo sapiens; assay: Selectivity ratio of Ki for alpha1-adrenoceptor (unknown origin) in cerebral cortex membranes to Ki for recombinant human 5-HT1A receptor expressed in HEK293 cell membranes; type: cell-based
[26] = Plasma concentration in Sprague-Dawley rat at 2 mg/kg, po administered as single dose measured after 9 hrs by LC-MS/MS analysis; type: ADME, organism-based
[27] = AUC (0 to infinity) in Sprague-Dawley rat at 0.5 mg/kg, iv administered as single dose by LC-MS/MS analysis; type: ADME, organism-based; design: dose 0.5 mg/kg, time infinity, route intravenous; conditions: in vivo
[28] = Plasma concentration in Sprague-Dawley rat at 2 mg/kg, po administered as single dose measured after 8 hrs by LC-MS/MS analysis; type: ADME, organism-based

Sodium-dependent serotonin transporter, sequence (P31652 whole entry): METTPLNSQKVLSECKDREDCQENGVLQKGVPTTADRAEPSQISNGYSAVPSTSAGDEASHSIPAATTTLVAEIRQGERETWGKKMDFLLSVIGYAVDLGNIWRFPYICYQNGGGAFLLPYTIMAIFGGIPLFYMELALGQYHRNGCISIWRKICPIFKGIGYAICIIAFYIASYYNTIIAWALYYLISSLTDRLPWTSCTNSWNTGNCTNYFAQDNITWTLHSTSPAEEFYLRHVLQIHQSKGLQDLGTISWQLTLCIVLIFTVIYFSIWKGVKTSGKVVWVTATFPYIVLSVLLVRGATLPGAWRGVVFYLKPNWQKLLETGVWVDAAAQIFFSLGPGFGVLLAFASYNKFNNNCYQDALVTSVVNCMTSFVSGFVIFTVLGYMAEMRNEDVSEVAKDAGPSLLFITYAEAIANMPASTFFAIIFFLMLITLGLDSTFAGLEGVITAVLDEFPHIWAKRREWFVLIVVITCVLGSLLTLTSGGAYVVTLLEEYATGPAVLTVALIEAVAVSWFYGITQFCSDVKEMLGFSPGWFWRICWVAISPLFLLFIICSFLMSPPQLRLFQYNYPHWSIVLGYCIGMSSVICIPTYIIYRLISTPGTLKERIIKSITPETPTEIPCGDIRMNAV
5-hydroxytryptamine receptor 7, sequence (P34969 whole entry): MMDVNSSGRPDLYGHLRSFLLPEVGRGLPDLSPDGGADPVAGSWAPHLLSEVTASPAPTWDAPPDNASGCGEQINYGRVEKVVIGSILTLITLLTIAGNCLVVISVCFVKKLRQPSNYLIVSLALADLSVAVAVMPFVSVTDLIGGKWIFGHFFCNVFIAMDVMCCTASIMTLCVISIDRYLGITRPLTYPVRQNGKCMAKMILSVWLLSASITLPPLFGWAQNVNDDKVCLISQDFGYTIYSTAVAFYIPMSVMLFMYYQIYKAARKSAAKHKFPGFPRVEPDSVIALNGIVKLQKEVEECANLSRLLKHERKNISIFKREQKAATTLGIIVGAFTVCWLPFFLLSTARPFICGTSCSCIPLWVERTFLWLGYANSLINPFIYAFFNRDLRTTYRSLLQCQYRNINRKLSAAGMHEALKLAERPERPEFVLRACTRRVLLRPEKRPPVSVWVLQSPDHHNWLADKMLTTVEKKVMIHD

half-life [1]: 6.1 h
Ki [2]: 3.3 nM
microsomal CLint at 1 µM [3]: 29.8 µL/min/mg
concentration at 4 h [5]: 20.7 ng/mL
MRT last [6]: 4.3 h
concentration at 2 h [8]: 32.3 ng/mL
concentration at 2 h [9]: 76.7 ng/mL
Cmax [10]: 86.7 ng/mL
concentration at 5 min [11]: 342 ng/mL
Cmax [12]: 342 ng/mL
AUC(0-t) [13]: 287 ng·h/mL
Ki [16]: 28 nM
Ki [17]: 28 nM
concentration at 0.5 h [18]: 80.8 ng/mL
concentration at 1 h [19]: 72.8 ng/mL
IC50 [20]: 25 nM
concentration at 6 h [21]: 64.7 ng/mL
concentration at 4 h [22]: 60.7 ng/mL
half-life [23]: 3.3 h
concentration at 0.5 h [24]: 58.3 ng/mL
concentration at 9 h [26]: 34.9 ng/mL
AUC(0-inf) [27]: 328 ng·h/mL
concentration at 8 h [28]: 47.4 ng/mL
SMILES: Fc1ccc(N2CCN(CCCc3c[nH]c4ccc(F)cc34)CC2)c(-c2ccccc2)c1
Activity [4]: 24%
Activity [7]: 39%
Activity [14]: 54%
Activity [15]: 27%
Ratio Ki [25]: 1
